In ChEMBL document CHEMBL1201862, “PubChem BioAssay data set” (2004):
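These data come from cells grown in 96-well plates and exposed to compound for 48 hours at five concentrations. GI50: concentration for 50% inhibition of growth.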 The source made the active and inactive calls. Rule as the data show it: active = GI50 up to about 1.1 µM and inactive = higher.

What was measured:
Test in all cases: NCI tumour cell line growth inhibition, 48 h
SF-295 = test system: SF-295
NCI-H522 = test system: NCI-H522
SK-MEL-28 = test system: SK-MEL-28
IGROV-1 = test system: IGROV-1
U-251 = test system: U-251
SK-MEL-2 = test system: SK-MEL-2
HCC 2998 = test system: HCC 2998
CCRF-CEM = test system: CCRF-CEM
Malme-3M = test system: Malme-3M
MOLT-4 = test system: MOLT-4
HCT-116 = test system: HCT-116
A498 = test system: A498
TK-10 = test system: TK-10
SK-MEL-5 = test system: SK-MEL-5
RPMI-8226 = test system: RPMI-8226
OVCAR-5 = test system: OVCAR-5
NCI/ADR-RES = test system: NCI/ADR-RES
Hs-578T = test system: Hs-578T
MDA-MB-231 = test system: MDA-MB-231

SMILES	GI50 (SF-295)	GI50 (NCI-H522)	GI50 (SK-MEL-28)	GI50 (IGROV-1)	GI50 (U-251)	GI50 (SK-MEL-2)	GI50 (HCC 2998)	GI50 (CCRF-CEM)	GI50 (Malme-3M)	GI50 (MOLT-4)	GI50 (HCT-116)	GI50 (A498)	GI50 (TK-10)	GI50 (SK-MEL-5)	GI50 (RPMI-8226)	GI50 (OVCAR-5)	GI50 (NCI/ADR-RES)	GI50 (Hs-578T)	GI50 (MDA-MB-231)
CC(=O)OC(C)(C)/C=C/C(=O)[C@](C)(O)[C@H]1[C@H](O)C[C@@]2(C)[C@@H]3CC=C4[C@@H](C[C@H](O)[C@H](O)C4(C)C)[C@]3(C)C(=O)C[C@]12C	0.973 µM (active)	0.259 µM (active)	0.526 µM (active)	0.925 µM (active)	0.687 µM (active)	0.752 µM (active)	0.822 µM (active)	0.229 µM (active)	1.11 µM (active)	0.289 µM (active)	0.277 µM (active)	0.853 µM (active)	0.548 µM (active)	0.701 µM (active)	0.107 µM (active)	0.883 µM (active)			
CC(C)(C)N/N=C(\C(=O)Nc1nnc(S)[nH]1)C1C(=O)Nc2ccccc2[S+]1[O-] (stereo unspecified)	> 100 µM (inactive)	> 100 µM (inactive)	> 100 µM (inactive)	> 100 µM (inactive)	> 100 µM (inactive)	> 100 µM (inactive)	> 100 µM (inactive)	> 100 µM (inactive)	> 100 µM (inactive)	> 100 µM (inactive)	> 100 µM (inactive)	> 100 µM (inactive)	> 100 µM (inactive)	> 100 µM (inactive)	> 100 µM (inactive)	> 100 µM (inactive)			
[O-][S+]1C(=c2ccc(=C3Sc4ccccc4S3)cc2)Sc2ccccc21 (stereo unspecified)	17.1 µM (inactive)	> 100 µM (inactive)	3.03 µM (inactive)	38.5 µM (inactive)	14.9 µM (inactive)	21.3 µM (inactive)	16 µM (inactive)	> 94.4 µM (inactive)	> 100 µM (inactive)	> 71.9 µM (inactive)	25.1 µM (inactive)	15.8 µM (inactive)	> 100 µM (inactive)	19.2 µM (inactive)	> 100 µM (inactive)	18.3 µM (inactive)			
O=C(CCc1nnc(S)[nH]1)Nc1cc(Cl)ccc1Cl	> 100 µM (inactive)	> 100 µM (inactive)	> 100 µM (inactive)	> 100 µM (inactive)	> 100 µM (inactive)	> 100 µM (inactive)	> 100 µM (inactive)	> 100 µM (inactive)	> 100 µM (inactive)	> 100 µM (inactive)	> 100 µM (inactive)	> 100 µM (inactive)	> 100 µM (inactive)	> 100 µM (inactive)	> 100 µM (inactive)	> 100 µM (inactive)			
O=C1NC2ON=C(c3ccccc3)C2C2ON=C(c3ccccc3)N12 (stereo unspecified)	> 100 µM (inactive)	40.5 µM (inactive)		54.3 µM (inactive)			> 100 µM (inactive)		> 100 µM (inactive)				> 100 µM (inactive)	54 µM (inactive)		> 100 µM (inactive)	45.9 µM (inactive)	63.2 µM (inactive)	> 100 µM (inactive)
O=S1(=O)OCCOS(=O)(=O)C1S(=O)(=O)c1cccc2ccccc12	> 100 µM (inactive)		> 100 µM (inactive)	> 100 µM (inactive)	> 100 µM (inactive)	> 100 µM (inactive)	> 100 µM (inactive)	> 100 µM (inactive)	> 100 µM (inactive)	> 100 µM (inactive)	24 µM (inactive)		> 10 µM (inactive)	> 100 µM (inactive)	> 100 µM (inactive)	> 100 µM (inactive)	> 100 µM (inactive)		> 100 µM (inactive)
